The source of these data is ChEMBL document CHEMBL4038294, “Divergent synthesis of kinase inhibitor derivatives, leading to discovery of selective Gck inhibitors” (Bioorg Med Chem Lett, 2017).

As usually defined, the inhibition is the share of the control response that was lost under treatment. A low value points to a weak effect. As usually defined, the Kd is the concentration at which binding is half-saturated. The low end stands for a tighter complex, the high end for a looser complex.

Assay [1] concerns the target T1, Mitogen-activated protein kinase kinase kinase kinase 2 (Homo sapiens) (UniProt Q12851).
T1 sequence (whole entry): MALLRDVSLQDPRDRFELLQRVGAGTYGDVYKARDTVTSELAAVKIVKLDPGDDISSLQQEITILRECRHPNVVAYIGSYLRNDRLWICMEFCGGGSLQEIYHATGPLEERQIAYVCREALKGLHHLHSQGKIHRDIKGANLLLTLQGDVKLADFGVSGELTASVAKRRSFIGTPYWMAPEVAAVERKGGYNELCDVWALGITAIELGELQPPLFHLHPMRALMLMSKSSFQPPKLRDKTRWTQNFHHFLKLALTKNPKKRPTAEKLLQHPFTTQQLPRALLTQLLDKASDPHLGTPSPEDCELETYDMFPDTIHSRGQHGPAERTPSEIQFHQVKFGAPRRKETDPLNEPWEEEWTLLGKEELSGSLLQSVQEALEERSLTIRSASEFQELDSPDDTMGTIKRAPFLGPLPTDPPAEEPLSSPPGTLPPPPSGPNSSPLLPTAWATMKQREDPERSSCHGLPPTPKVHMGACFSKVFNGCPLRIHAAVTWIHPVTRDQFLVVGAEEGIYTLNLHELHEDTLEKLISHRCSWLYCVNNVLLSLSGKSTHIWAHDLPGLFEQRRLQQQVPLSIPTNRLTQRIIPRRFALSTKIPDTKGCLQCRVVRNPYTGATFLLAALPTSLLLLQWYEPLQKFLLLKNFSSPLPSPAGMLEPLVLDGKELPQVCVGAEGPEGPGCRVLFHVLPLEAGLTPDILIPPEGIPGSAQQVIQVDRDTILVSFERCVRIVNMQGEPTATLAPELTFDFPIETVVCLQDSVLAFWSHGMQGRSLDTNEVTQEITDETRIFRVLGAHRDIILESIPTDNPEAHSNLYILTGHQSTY
The assay is described as follows: Inhibition of human wild type GCK (M1 to G318 residues) expressed in mammalian expression system at 1 uM by KINOMEScan assay relative to control.

Assay [2] deals with Tyrosine-protein kinase SYK (Homo sapiens) (UniProt P43405). Nature of the assay: Inhibition of human wild type partial length SYK (D354 to N635 residues) expressed in bacterial expression system at 1 uM by KINOMEScan assay relative to control.
Assay [3] has as its target T2, Mitogen-activated protein kinase kinase kinase kinase 2 (Homo sapiens, UniProt Q12851).
T2 sequence (Q12851 whole entry): T1 sequence (whole entry)
The assay is described as follows: Binding affinity to human wild type GCK (M1 to G318 residues) expressed in mammalian expression system by KINOMEScan assay.

On to `CCC(C)NC(=O)c1cccnc1Nc1nc(-c2ccccc2)cc2nccn12` (stereo not given), for which the inhibition came out at 29% in assay [1] and 1% in assay [2].
Taken in the same sequence, the figures for `CNC(=O)c1cccnc1Nc1nc(-c2ccc3c(c2)OCO3)cc2nccn12` were 1% and 9%.
In the case of `CCNC(=O)c1cccnc1Nc1nc(-c2ccccc2)cc2nccn12`, the figures for the inhibition in assay [1] and in assay [2] were 20% and 19%, respectively.
Take `Cc1ccccc1-c1cc2nccn2c(Nc2ncccc2C(N)=O)n1`: the values for the inhibition in assay [1] and in assay [2] were 94.7% and 11%, respectively. The molecule further gave a dissociation constant (Kd) in assay [3] of 100 nM.
For the molecule `NC(=O)c1cccnc1Nc1nc(-c2ccccc2)cc2nccn12`, the inhibition in assay [1] is 99.5%; in assay [2], 73%.
On to `CNC(=O)c1cccnc1Nc1nc(-c2ccc(OC)c(OC)c2)cc2nccn12`, for which the inhibition in assay [1] and in assay [2] was 0% in each case.
`CCCOc1ccc(-c2cc3nccn3c(Nc3ncccc3C(N)=O)n2)cc1`: the inhibition in assay [1] is 86%; in assay [2], 51%.
On to `CCCNC(=O)c1cccnc1Nc1nc(-c2ccccc2)cc2nccn12`, for which the values for the inhibition in assay [1] and in assay [2] were 16% and 5%, respectively.
For `CNC(=O)c1cccnc1Nc1cc(-c2ccccc2)cc2[nH]ccc12`, the values for the inhibition in assay [1] and in assay [2] were 29% and 1%, respectively.
The corresponding values for `Cc1cccc(-c2cc3nccn3c(Nc3ncccc3C(N)=O)n2)c1` are 100% and 74%.
As to `O=C(NCc1ccccc1)c1cccnc1Nc1nc(-c2ccccc2)cc2nccn12`, the inhibition in assay [1] is 2%; in assay [2] it was 0%.
The corresponding values for `COc1ccc(-c2cc3nccn3c(Nc3ncccc3C(N)=O)n2)cc1` are 99.1% and 59%.
As for `Cc1ccc(-c2cc3nccn3c(Nc3ncccc3C(N)=O)n2)cc1`, the inhibition in assay [1] came out at 99.2%; in assay [2] it was 58%.
For the molecule `COc1cccc(-c2cc3nccn3c(Nc3ncccc3C(N)=O)n2)c1`, the inhibition in assay [1] is 97.2%; in assay [2], 37%. In addition, the Kd in assay [3] came to 59 nM.
Take `CCCCNC(=O)c1cccnc1Nc1nc(-c2ccccc2)cc2nccn12`: the inhibition in assay [1] and in assay [2] was 8% in each case.
`CN(C)C(=O)c1cccnc1Nc1nc(-c2ccccc2)cc2nccn12`: the inhibition in assay [1] amounted to 58%; in assay [2], 10%.
The corresponding values for `CC(C)NC(=O)c1cccnc1Nc1nc(-c2ccccc2)cc2nccn12` are 0% and 0%.
Turning to `COc1ccc(-c2cc3nccn3c(Nc3ncccc3C(N)=O)n2)cc1OC`, the inhibition in assay [1] was 100%; in assay [2], 85%.
The corresponding values for `CNC(=O)c1cccnc1Nc1nc(-c2ccccc2)cc2nccn12` are 24% and 30%.
Consider `CNC(=O)c1cccnc1Nc1nc(-c2cccc(OC)c2)cc2nccn12`, for which the inhibition in assay [1] came to 0%; in assay [2], 1%.
As for `NC(=O)c1cccnc1Nc1nc(-c2ccc3c(c2)OCO3)cc2nccn12`, the inhibition in assay [1] came out at 94.3%; in assay [2], 24%. In assay [3], this molecule came in with a dissociation constant Kd of 49 nM.
`COc1ccccc1-c1cc2nccn2c(Nc2ncccc2C(N)=O)n1`: the values for the inhibition in assay [1] and in assay [2] were 100% and 61%, respectively.
The corresponding values for `CCCCOc1ccc(-c2cc3nccn3c(Nc3ncccc3C(N)=O)n2)cc1` are 47% and 4%.
On to `CNC(=O)c1cccnc1Nc1cc(-c2ccc(OC)cc2)cc2[nH]ccc12`, for which the inhibition was found to be 2% in assay [1] and 0% in assay [2].
Taken in the same sequence, the figures for `COc1cc(OC)cc(-c2cc3nccn3c(Nc3ncccc3C(N)=O)n2)c1` were 100% and 80%.
Taken in the same sequence, the figures for `CNC(=O)c1cccnc1Nc1nc(-c2ccc(OC)cc2)cc2nccn12` were 1% and 0%.
As to `COc1ccc(-c2cc3nccn3c(Nc3ncccc3C(N)=O)n2)c(OC)c1`, the inhibition in assay [1] was found to be 100%; in assay [2] it was 80%.
Turning to `COc1ccc(-c2cccc(-c3cc4nccn4c(Nc4ncccc4C(N)=O)n3)c2)cc1`, the figures for the inhibition in assay [1] and in assay [2] were 84% and 5%, respectively. The molecule also displayed a dissociation constant Kd in assay [3] of 220 nM.
